Data set [1] relates to human PRP. Kind of data set: Human platelet aggregation inhibition test. The class given is cell-based. The following applies: ADP (1×10^−5 M) induced aggregation. How it is done:
Blood collected from healthy human volunteers in aqueous trisodium citrate solution was centrifuged at 150 g for 15 min and the upper layer was recovered to obtain platelet-rich plasma (PRP). The residual blood was centrifuged at 3000 g for 10 min and the supernatant was collected as platelet-poor plasma (PPP). Platelet concentration in the PRP was determined using the Z series Beckman Coulter particle counter (Beckman, Fullerton, Calif.) and adjusted to 250,000 platelets/μL using PPP. 480 μL of PRP was pre-incubated at 37° C. and stirred at 1200 rpm with 10 μL aqueous test compound solution for 1 min prior to induction of aggregation by the addition of 10 μL of aqueous adenosine diphosphate (ADP) solution to adjust the final ADP concentration in the PRP to 1×10^−5 M. The maximal amplitude of aggregation response within 3 min was determined and measured in triplicate using the Chronolog model 490 aggregometer (Chrono-log Corp., Havertown, Pa.). Percent inhibition of aggregation was calculated from the maximum decrease in optical density of the control (addition of water in place of the test compound solution) sample and of the samples containing test compound. The test compound was added to adjust the final concentration to the range 10^−9 to 10^−4 M, and IC50 values were determined by inhibition percentage of aggregation at each concentration.

Data set [2] has as its target human prostacyclin (PGI2) receptor (Homo sapiens (Human), UniProt P43119). Kind of data set: HTRF assay for direct cAMP measurement. The class given is cell-based. The following applies: recombinant CHO-K1 cells stably transfected with human prostacyclin receptor; cAMP increase. The text has this: Compounds were screened for agonists of the human prostacyclin (PGI2) receptor using the HTRF® assay for direct cAMP measurement (Gabriel et al., ASSAY and Drug Development Technologies, 1:291-303, 2003) and recombinant CHO-K1 cells stably transfected with human prostacyclin receptor. CHO-K1 cells were obtained from ATCC® (Manassas, Va.; Catalog # CCL-61). An agonist of the prostacyclin receptor was detected in HTRF® assay for direct cAMP measurement as a compound which increased cAMP concentration. HTRF® assay also was used to determine EC50 values for prostacyclin receptor agonists.
The HTRF® assay kit was purchased from Cisbio-US, Inc. (Bedford, Mass.; Catalog #62AM4PEC). The HTRF® assay supported by the kit is a competitive immunoassay between endogenous cAMP produced by the CHO-K1 cells and tracer cAMP labeled with the dye d2. The tracer binding is visualized by a monoclonal anti-cAMP antibody labeled with Cryptate. The specific signal (i.e., fluorescence resonance energy transfer, FRET) is inversely proportional to the concentration of unlabeled cAMP in the standard or sample.
The fluorescence ratio (665 nm/620 nm) of the standards (0.17 to 712 nM cAMP) included in the assay was calculated and used to generate a cAMP standard curve according to the kit manufacturer's instructions. The fluorescence ratio of the samples (test compound or compound buffer) was calculated and used to deduce respective cAMP concentrations by reference to the cAMP standard curve.
The HTRF® assay was carried out using a two-step protocol essentially according to the kit manufacturer's instructions, in 20 μL total volume per well in 384-well plate format (ProxiPlates; PerkinElmer, Fremont, Calif.; catalog #6008280). To each of the experimental wells was transferred 3000 recombinant CHO-K1 cells in 5 μL assay buffer (phosphate buffered saline containing calcium chloride and magnesium chloride (Invitrogen, Carlsbad, Calif.; catalog #14040) supplemented with IBMX (100 μM) and rolipram (10 μM) (phosphodiesterase inhibitors; Sigma-Aldrich, St. Louis, Mo.; catalog #15879 and catalog # R6520, respectively) and 0.1% bovine serum albumin (BSA) fraction V (Sigma-Aldrich; catalog # A3059)), followed by test compound in 5 μL assay buffer or 5 μL assay buffer. The plate was then incubated at room temperature for 1 h. To each well was then added 5 μL cAMP-d2 conjugate in lysis buffer and 5 μL Cryptate conjugate in lysis buffer according to the kit manufacturer's instructions. The plate was then further incubated at room temperature for 1 h, after which the assay plate was read.
The HTRF® readout was accomplished using a PHERAstar (BMG LABTECH Inc., Durham, N.C.) or EnVision™ (PerkinElmer, Fremont Calif.) microplate reader.

Data set [3] deals with MCT-induced pulmonary arterial hypertension. Kind of data set: Rat monocrotaline (MCT) model of pulmonary arterial hypertension. The following applies: 30 mg/kg oral gavage twice a day for 21 days; 60 mg/kg MCT s.c.; male Wistar rats. The class given is in vivo. How it is done: Male Wistar rats (100-150 g at start of study) (Charles River Laboratories, Wilmington, Mass.) were housed two per cage and maintained in a humidity—(40-60%) and temperature—(68-72° F.) controlled facility on a 12 hr:12 hr light/dark cycle (lights on at 6:30 am) with free access to food (Harlan Teklad, Orange Calif., Rodent Diet 8604) and water. Rats were allowed one week of habituation to the animal facility before testing.
The rat monocrotaline (MCT) model is a standard and well-accepted model of pulmonary arterial hypertension. MCT induces acute pulmonary endothelial damage associated with pulmonary vascular inflammation. […]
Rats were randomly given a single subcutaneous injection of either 60 mg/kg MCT (Sigma, St. Louis, Mo.) or 0.9% saline (sham) and assigned to receive oral administration of 20% hydroxypropyl beta-cyclodextrin (vehicle) or test compound (30 mg/kg; FIGS. 7 and 8). […] Heart chamber weights were measured on Day 22. […] The ratio of right ventricular (RV) weight to left ventricle plus septum (LV+S) weight (this ratio is indicated as “RV/(LV+S)” in FIGS. 7 and 8) was calculated as an index of the hypertrophic response to the induced pulmonary arterial hypertension and, as such, as an index of a test compound's therapeutic efficacy for pulmonary arterial hypertension.

Data set [4] relates to cynomolgus monkey hepatocytes. Kind of data set: Hepatocyte metabolism of Compound 22 sodium salt, monkey. The class given is in vitro ADME. As to conditions: 100 μM, up to 240 min. How it is done:
(§1) All cryopreserved hepatocytes were thawed and diluted to a desired cell density (1×10^6 cells/mL) according to the supplier's (Xenotech) guidelines using hepatocytes isolation kit. Cell viability was determined by trypan blue exclusion using a hemacytometer. A typical incubation mixture contained human, cynomolgus monkey, beagle dog or Sprague-Dawley rat hepatocytes (200,000 cells/199 μL) in designated wells of a 48-well plate containing incubation medium (Phenol red-free Waymouth's medium). […] One incubation plate was prepared for each time point (i.e., 0, 60, 120, and 240 min) with samples being prepared in duplicate. Incubations were conducted at 37° C., 5% CO2 and 100% relative humidity in an incubator. At each time point, one incubation plate was removed form the incubator, and reaction was terminated by adding 400 μL of acetonitrile containing an internal standard. For the 0 min time point, the reactions were kept on ice before adding Compound 22 sodium salt. After 5 min on ice, the reaction mixture was terminated by adding 400 μL of acetonitrile containing an internal standard. Supernatants were transferred to labeled strip tubes with caps, which were vortexed for 3 min, and then sonicated for an additional 3 min. The samples were centrifuged for 10 min at 4000 rpm and the supernatants were used for metabolite identification. […]

The subject of data set [5] is human hepatocytes. Nature of the data set: Hepatocyte metabolism of Compound 22 sodium salt, human. The class given is in vitro ADME. The following applies: 100 μM, up to 240 min. How it is done:
as §1

Data set [6] deals with Sprague-Dawley rat hepatocytes. Kind of data set: Hepatocyte metabolism of Compound 22 sodium salt, rat. The class given is in vitro ADME. As to conditions: 100 μM, up to 240 min. How it is done: as §1
For data set [7], the system named is beagle dog hepatocytes. Nature of the data set: Hepatocyte metabolism of Compound 22 sodium salt, dog. The class given is in vitro ADME. The following applies: 100 μM, up to 240 min. How it is done:
as §1

pIC50: −log10 of the molar value.

As usually defined, the pIC50 is the negative decadic logarithm of the IC50, by convention in mol/L. In general, EC50 refers to the concentration needed to bring the measured effect to its halfway point.

Sequence of human prostacyclin (PGI2) receptor (P43119 whole entry): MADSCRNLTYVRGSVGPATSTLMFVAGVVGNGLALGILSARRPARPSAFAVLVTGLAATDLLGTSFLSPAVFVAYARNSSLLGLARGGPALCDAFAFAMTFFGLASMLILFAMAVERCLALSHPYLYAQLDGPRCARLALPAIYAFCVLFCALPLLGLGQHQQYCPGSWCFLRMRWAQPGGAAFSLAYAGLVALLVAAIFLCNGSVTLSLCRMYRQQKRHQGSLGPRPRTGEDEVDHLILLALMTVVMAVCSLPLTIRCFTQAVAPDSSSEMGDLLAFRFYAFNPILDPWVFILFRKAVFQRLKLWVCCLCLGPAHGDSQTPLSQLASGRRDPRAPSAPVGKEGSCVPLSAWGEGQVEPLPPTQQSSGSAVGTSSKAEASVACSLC

`O=C(O)COC[C@H]1CC[C@H](CNC(=O)N(c2ccccc2)c2ccccc2)CC1` [Compound 2, 2-(((1r,4r)-4-((3,3-diphenylureido)methyl)cyclohexyl)methoxy)acetic acid]: in data set [1], the negative logarithm of the IC50 (pIC50) is 7.14.

In the case of `O=C(O)COC[C@H]1CC[C@H](CNC(=O)N(c2ccccc2)c2cccc(Cl)c2)CC1` [Compound 6, 2-(((1r,4r)-4-((3-(3-chlorophenyl)-3-phenylureido)methyl)cyclohexyl)methoxy)acetic acid], the EC50 in data set [2] was determined as 61.1 nM.

As for `O=C(O)COC[C@H]1CC[C@H](COC(=O)N(c2ccccc2)c2cccc(F)c2)CC1` [Compound 23, 2-(((1r,4r)-4-(((3-fluorophenyl)(phenyl)carbamoyloxy)methyl)cyclohexyl)methoxy)acetic acid], in data set [3], the “hypertrophic response, RV/(LV+S)” value is “inhibited the hypertrophic response”.

Regarding `O=C(O)COC[C@H]1CC[C@@H](COC(=O)N(c2ccccc2)c2cccc(Cl)c2)CC1` [Compound 30, 2-(((1s,4s)-4-(((3-chlorophenyl)(phenyl)carbamoyloxy)methyl)cyclohexyl)methoxy)acetic acid], the pIC50 in data set [1] was 6.68.

For `O=C(O)COC[C@H]1CC[C@@H](COC(=O)N(c2ccccc2)c2ccc(F)cc2)CC1` [Compound 35, 2-(((1s,4s)-4-(((4-fluorophenyl)(phenyl)carbamoyloxy)methyl)cyclohexyl)methoxy)acetic acid], the EC50 in data set [2] turned out to be 56.9 nM.

Regarding `Cc1ccc(N(C(=O)OC[C@H]2CC[C@H](COCC(=O)O)CC2)c2ccccc2)s1` [Compound 50, 2-(((1r,4r)-4-(((5-methylthiophen-2-yl)(phenyl)carbamoyloxy)methyl)cyclohexyl)methoxy)acetic acid], the pIC50 in data set [1] was 7.90.

Consider `COc1ccc(N(C(=O)OC[C@H]2CC[C@H](COCC(=O)O)CC2)c2cccc(F)c2)cc1` [Compound 55, 2-(((1r,4r)-4-(((3-fluorophenyl)(4-methoxyphenyl)carbamoyloxy)methyl)cyclohexyl)methoxy)acetic acid], for which the EC50 in data set [2] was 5.14 nM.

In the case of `Cc1ccc(N(C(=O)OC[C@H]2CC[C@H](COCC(=O)O)CC2)c2cccc(F)c2)s1` [Compound 71, 2-(((1r,4r)-4-(((3-fluorophenyl)(5-methylthiophen-2-yl)carbamoyloxy)methyl)cyclohexyl)methoxy)acetic acid], the EC50 in data set [2] came out at 19.1 nM.

The molecule `CCOc1ccc(N(C(=O)OC[C@H]2CC[C@H](COCC(=O)O)CC2)c2ccccc2)cc1` [Compound 88, 2-(((1r,4r)-4-(((4-ethoxyphenyl)(phenyl)carbamoyloxy)methyl)cyclohexyl)methoxy)acetic acid] showed a pIC50 in data set [1] of 7.15.

Consider `O=C(O)CNC(=O)COC[C@H]1CC[C@H](COC(=O)N(c2ccccc2)c2ccc(Cl)cc2)CC1` [Compound 100, 2-(2-(((1r,4r)-4-(((4-chlorophenyl)(phenyl)carbamoyloxy)methyl)cyclohexyl)methoxy)acetamido) acetic acid], for which the “metabolite of Compound 22 sodium salt in monkey hepatocytes” value in data set [4] was “detected”. The “metabolite of Compound 22 sodium salt in human hepatocytes” value in data set [5] is “detected”. In addition, the “metabolite of Compound 22 sodium salt in rat hepatocytes” value in data set [6] was “only detected in human and monkey”. The “metabolite of Compound 22 sodium salt in dog hepatocytes” value in data set [7] is “only detected in human and monkey”.

These data come from US10668033B2, “Modulators of the prostacyclin (PGI2) receptor useful for the treatment of disorders related thereto” (Arena Pharmaceuticals, Inc., priority 2008, dated 2020).
